{"source": "paper PMC11783601", "about": "“Analogue-Sensitive Inhibition of Histone Demethylases Uncovers Member-Specific Function in Ribosomal Protein Synthesis” (Journal of the American Chemical Society, 2025)", "system": "nascent protein synthesis in HEK293T cells", "assay": "BONCAT: confocal imaging of TAMRA alkyne ligated nascent proteins in fixed cells", "type": "cell-based, human", "protocol": "To visualize the nascent proteins in intact cells, we performed click ligation on fixed cells with TAMRA alkyne, followed by confocal imaging. Treatment with AHA led to a robust fluorescence signal primarily in the cytoplasm compared to untreated cells indicating cytoplasmic protein synthesis (Figure 5D,E). […]\nand 6 ug of Thermo Turbofect (FERR0531). KDM4A siRNA was transfected into cells using 10nM siRNA (Thermo 4392420) with 1:2 ug amount of Thermo Turbofect (FERR0531). Cells were washed 4 hours later and fresh DMEM was applied. The next day, the cells were treated with inhibitor (L-leucine NOG) and grown for 24 hours. […] The lysate was quantified with Bradford dye and 40 ug of lysate was incubated with 1 mM Tris[(1-benzyl-1H-1,2,3-triazol-4-yl)methyl]amine (TBTA […]\nFor analysis of AHA incorporation measured by fixed cell imaging, HEK293-T cells (ATCC CRL-1573) were grown in a 24 well plate (Corning) on poly-D-lysine (Gibco A3890401) treated glass coverslips (ThermoScientific 12-545-81P) overnight and transfected the next day with 500 ng KDM4A WT/F185A or Empty Vector (EV) equivalent using 1:2 ug of Thermo Turbofect (FERR0531). […]\n(Sigma B2883-25MG) for 30 seconds, washed with PBS and finally adhered to a slide with gelvatol. […] Images were analyzed on ImageJ open-source software and NIS elements software. […]"}
{"molecule": "CCCCCCCCOC(=O)C(=O)NC(CC(C)C)C(=O)O", "note": "[6A, L-Leu octyl-ester NOG]", "values": [{"measurement": "TAMRA signal of nascent proteins (confocal imaging)", "setting": "fixed HEK293T cells overexpressing F185A, to the level of cells expressing control vector", "value": "subsequently inhibited"}]}
{"molecule": "CCCCCCCCOC(=O)c1ccc(O)c2ncccc12", "note": "[n-octyl IOX1]", "values": [{"measurement": "TAMRA signal of nascent proteins (confocal imaging)", "setting": "fixed HEK293T cells, endogenous KDM4A, compared with KDM4A silencing", "value": "phenocopied"}]}
